# Results as given in patent US20140113898A1, “BISARYLSULFONE AND DIALKYLARYLSULFONE COMPOUNDS AS CALCIUM CHANNEL BLOCKERS” (Zalicus Pharmaceuticals Ltd., priority 2010, published 2014).
# Target: T1, CaV2.2 (Homo sapiens, UniProt Q00975)
# T1 construct: expressed in transfected cells; host or cells: unnamed doxycycline-inducible cell line
# Assay: High-throughput CaV2.2/Kir2.3 FLIPR fluorescent assay
# Type: cell-based
# Details: Table 4; Fluo-4 FLIPR; closed or inactivated state not stated; read-out: FLIPR data CaV2.2
# Outline: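 IC50 was derived by logistic fitting of the FLIPR Fluo-4 signal recorded over 3 min after a 130 mM KCl stimulus. Before stimulation, cells (channel expression induced with doxycycline, 29 °C on assay day) were kept in pH 7.4 buffer with 2 mM KCl for the closed-state format or 12.5 mM KCl for the inactivated-state format.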
# T1 sequence (Q00975 whole entry): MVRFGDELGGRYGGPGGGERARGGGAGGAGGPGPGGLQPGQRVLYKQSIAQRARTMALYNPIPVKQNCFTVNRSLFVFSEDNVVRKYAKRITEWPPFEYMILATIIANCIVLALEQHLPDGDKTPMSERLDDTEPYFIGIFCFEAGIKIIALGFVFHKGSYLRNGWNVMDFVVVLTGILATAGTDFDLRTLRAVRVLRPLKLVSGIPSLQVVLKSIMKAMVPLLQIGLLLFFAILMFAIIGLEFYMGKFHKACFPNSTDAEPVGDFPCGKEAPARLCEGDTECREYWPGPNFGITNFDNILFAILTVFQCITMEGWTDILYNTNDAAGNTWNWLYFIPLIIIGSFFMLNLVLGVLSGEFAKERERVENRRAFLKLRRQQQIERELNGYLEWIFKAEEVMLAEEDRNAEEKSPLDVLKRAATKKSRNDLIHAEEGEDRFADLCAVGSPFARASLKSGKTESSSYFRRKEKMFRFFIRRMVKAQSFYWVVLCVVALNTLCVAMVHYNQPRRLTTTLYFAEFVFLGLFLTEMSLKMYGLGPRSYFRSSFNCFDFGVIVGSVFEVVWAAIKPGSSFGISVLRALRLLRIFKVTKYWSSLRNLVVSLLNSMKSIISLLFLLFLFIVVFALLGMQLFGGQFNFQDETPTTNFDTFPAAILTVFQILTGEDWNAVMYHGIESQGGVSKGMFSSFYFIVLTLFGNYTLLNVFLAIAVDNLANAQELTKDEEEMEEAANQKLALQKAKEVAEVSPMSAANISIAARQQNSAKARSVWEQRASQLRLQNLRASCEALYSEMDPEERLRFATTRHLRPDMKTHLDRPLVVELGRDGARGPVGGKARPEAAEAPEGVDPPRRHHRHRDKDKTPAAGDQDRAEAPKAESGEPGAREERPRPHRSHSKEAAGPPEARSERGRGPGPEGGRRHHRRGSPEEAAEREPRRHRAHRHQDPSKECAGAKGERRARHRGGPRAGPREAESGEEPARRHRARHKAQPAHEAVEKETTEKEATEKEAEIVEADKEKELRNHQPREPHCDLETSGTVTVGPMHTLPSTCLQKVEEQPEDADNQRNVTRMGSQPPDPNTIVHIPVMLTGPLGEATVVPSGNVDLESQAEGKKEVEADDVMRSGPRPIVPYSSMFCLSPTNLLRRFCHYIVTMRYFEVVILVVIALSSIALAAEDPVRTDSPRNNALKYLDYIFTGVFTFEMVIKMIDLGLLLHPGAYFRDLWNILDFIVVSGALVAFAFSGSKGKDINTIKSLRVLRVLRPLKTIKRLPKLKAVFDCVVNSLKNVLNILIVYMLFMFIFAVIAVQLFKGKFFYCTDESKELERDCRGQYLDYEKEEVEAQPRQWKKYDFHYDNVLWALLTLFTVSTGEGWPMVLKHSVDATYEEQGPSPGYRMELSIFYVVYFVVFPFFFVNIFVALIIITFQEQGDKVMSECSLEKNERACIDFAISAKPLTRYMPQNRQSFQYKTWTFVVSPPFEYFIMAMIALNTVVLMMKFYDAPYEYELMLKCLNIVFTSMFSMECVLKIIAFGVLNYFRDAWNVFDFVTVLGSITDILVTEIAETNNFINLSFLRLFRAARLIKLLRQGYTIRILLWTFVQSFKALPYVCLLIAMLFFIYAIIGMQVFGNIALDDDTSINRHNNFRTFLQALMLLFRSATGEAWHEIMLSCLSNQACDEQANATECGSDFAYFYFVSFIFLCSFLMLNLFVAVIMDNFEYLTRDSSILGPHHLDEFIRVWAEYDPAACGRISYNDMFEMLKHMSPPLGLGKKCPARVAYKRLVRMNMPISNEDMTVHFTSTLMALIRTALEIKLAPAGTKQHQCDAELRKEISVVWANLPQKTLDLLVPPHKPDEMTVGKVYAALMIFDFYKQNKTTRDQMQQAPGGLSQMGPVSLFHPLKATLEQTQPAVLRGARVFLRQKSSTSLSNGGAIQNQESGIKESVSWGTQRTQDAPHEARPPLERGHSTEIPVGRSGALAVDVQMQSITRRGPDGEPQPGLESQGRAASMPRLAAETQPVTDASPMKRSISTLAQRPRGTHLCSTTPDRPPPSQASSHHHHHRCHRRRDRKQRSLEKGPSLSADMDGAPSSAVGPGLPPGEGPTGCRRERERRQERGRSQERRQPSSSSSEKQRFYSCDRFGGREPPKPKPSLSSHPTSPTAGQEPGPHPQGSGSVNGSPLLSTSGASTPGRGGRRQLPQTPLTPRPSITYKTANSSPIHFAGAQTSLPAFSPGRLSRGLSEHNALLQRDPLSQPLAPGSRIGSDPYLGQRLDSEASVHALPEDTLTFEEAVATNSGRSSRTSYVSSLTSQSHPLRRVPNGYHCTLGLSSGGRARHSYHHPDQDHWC
# T1 sequence (P54284 whole entry partner): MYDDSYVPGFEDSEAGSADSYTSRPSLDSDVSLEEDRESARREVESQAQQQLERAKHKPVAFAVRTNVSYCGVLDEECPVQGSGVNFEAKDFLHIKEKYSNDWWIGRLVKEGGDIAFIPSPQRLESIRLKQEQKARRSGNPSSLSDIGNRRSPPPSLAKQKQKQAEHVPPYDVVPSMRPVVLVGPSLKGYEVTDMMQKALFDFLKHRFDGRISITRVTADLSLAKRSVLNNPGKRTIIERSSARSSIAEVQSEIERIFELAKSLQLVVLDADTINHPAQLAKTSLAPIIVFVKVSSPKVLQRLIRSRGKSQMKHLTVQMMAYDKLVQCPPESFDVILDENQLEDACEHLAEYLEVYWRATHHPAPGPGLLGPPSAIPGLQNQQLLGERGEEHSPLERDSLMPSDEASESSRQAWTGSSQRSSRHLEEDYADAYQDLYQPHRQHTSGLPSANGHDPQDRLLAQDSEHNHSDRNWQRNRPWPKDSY
# T1 sequence (P54289 25-946 partner limits assumed): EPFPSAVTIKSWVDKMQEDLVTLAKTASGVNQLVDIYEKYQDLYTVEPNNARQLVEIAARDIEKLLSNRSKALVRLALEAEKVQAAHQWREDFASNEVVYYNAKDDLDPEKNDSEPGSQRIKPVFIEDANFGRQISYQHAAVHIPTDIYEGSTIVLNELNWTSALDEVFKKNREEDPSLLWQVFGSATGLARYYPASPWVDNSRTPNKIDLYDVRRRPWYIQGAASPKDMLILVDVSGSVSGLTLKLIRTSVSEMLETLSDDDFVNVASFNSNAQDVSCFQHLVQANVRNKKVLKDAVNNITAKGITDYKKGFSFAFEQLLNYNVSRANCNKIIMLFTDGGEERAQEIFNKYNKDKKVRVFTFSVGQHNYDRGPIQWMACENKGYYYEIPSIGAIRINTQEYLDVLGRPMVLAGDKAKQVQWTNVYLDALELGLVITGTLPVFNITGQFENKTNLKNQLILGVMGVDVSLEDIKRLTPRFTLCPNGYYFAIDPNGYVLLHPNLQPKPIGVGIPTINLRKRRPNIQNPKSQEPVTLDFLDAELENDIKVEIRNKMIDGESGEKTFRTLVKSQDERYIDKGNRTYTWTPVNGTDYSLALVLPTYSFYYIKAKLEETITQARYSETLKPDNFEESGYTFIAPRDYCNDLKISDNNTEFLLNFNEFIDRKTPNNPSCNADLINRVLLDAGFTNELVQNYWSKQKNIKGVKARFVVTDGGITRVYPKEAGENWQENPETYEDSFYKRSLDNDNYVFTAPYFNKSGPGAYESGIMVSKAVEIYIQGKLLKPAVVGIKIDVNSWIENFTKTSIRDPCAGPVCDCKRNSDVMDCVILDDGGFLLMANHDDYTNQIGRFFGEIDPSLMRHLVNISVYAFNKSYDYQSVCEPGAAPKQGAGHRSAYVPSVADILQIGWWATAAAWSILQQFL
# T1 sequence (P54289 947-1103 partner limits assumed): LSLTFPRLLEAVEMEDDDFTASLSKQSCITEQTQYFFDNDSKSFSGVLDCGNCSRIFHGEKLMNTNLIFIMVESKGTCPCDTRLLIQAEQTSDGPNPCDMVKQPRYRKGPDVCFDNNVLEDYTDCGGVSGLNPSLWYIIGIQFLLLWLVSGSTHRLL
row,SMILES,IC50 [µM]
1,"O=C(NCc1ccc(S(=O)(=O)c2cccc(C(F)(F)F)c2)cc1)C1CCCCN1 (centres unmarked) [Compound 59, N-(4-((3-(trifluoromethyl)phenyl)sulfonyl)benzyl)piperidine-2-carboxamide]",1
2,"CO[C@H]1CN[C@@H](C(=O)NCc2ccc(S(=O)(=O)c3cccc(C(F)(F)F)c3)cc2)C1 [Compound 62, (2R,4R)-4-methoxy-N-(4-((3-(trifluoromethyl)phenyl)sulfonyl)benzyl)pyrrolidine-2-carboxamide]",0.62
3,"CS(=O)(=O)c1nc(C(F)(F)F)ccc1C(=O)NCc1cc(S(=O)(=O)c2cccc(C(F)(F)F)c2)ccn1 [Compound 110, 2-(methylsulfonyl)-6-(trifluoromethyl)-N-((4-((3-(trifluoromethyl)phenyl)sulfonyl)pyridin-2-yl)methyl)nicotinamide]",2.21
4,"CO[C@H]1CN[C@@H](C(=O)NCc2ccc(S(=O)(=O)c3cccc(C(F)(F)F)c3)cc2)C1 [Compound 82, (2R,4R)-4-methoxy-N-(4-((3-(trifluoromethyl)phenyl)sulfonyl)benzyl)pyrrolidine-2-carboxamide]",0.97
5,"O=C(NCc1ccccc1S(=O)(=O)c1cccc(C(F)(F)F)c1)c1ccnn1CC(F)(F)F [Compound 48, 1-(2,2,2-trifluoroethyl)-N-(2-((3-(trifluoromethyl)phenyl)sulfonyl)benzyl)-1H-pyrazole-5-carboxamide]",1.65
6,"O=C(NCc1ccccc1S(=O)(=O)c1cccc(C(F)(F)F)c1)[C@@H]1CCCN1 [Compound 76, (S)-N-(2-((3-(trifluoromethyl)phenyl)sulfonyl)benzyl)pyrrolidine-2-carboxamide]",5.54
7,"O=C(NCc1ccc(S(=O)(=O)c2cccc(C(F)(F)F)c2)cc1)C1CCCN1 (stereo in doubt) [Compound 77, (R)-N-(4-((3-(trifluoromethyl)phenyl)sulfonyl)benzyl)pyrrolidine-2-carboxamide]",0.69
8,"O=C(NCc1ccc(S(=O)(=O)c2cccc(C(F)(F)F)c2)cc1)[C@@H]1C[C@@H](O)CN1 [Compound 74, (2S,4R)-4-hydroxy-N-(4-((3-(trifluoromethyl)phenyl)sulfonyl)benzyl)pyrrolidine-2-carboxamide]",2.36
9,"O=C(NCc1ccc(S(=O)(=O)c2cccc(C(F)(F)F)c2)cn1)c1ccnc(C(F)(F)F)c1 [Compound 102, 2-(trifluoromethyl)-N-((5-((3-(trifluoromethyl)phenyl)sulfonyl)pyridin-2-yl)methyl)isonicotinamide]",1.41

# Same assay, conditions: Table 5; Fluo-4 FLIPR; closed or inactivated state not stated; read-out: FLIPR data CaV2.2
row,SMILES,IC50 [µM]
1,"CC(C)(CNC(=O)c1ccnc(F)c1)S(=O)(=O)c1cccc(C(F)(F)F)c1 [Compound 177, 2-fluoro-N-(2-methyl-2-((3-(trifluoromethyl)phenyl)sulfonyl)propyl)isonicotinamide]",10
2,"CC(C)(CCNC(=O)[C@H]1CCCN1)S(=O)(=O)c1cccc(C(F)(F)F)c1 [Compound 220, (R)-N-(3-methyl-3-((3-(trifluoromethyl)phenyl)sulfonyl)butyl)pyrrolidine-2-carboxamide]",3.43
3,"COc1cc(CCNC(=O)CC(C)(C)S(=O)(=O)c2cccc(C(F)(F)F)c2)ccc1O [Compound 153, N-(4-hydroxy-3-methoxyphenetnyl)-3-methyl-3-((3-(trifluoromethyl)phenyl)sulfonyl)butanamide]",1.22
4,"CC1(C(=O)NCCC(C)(C)S(=O)(=O)c2cccc(C(F)(F)F)c2)CCCCN1 (centres unmarked) [Compound 222, 2-methyl-N-(3-methyl-3-((3-(trifluoromethyl)phenyl)sulfonyl)butyl)piperidine-2-carboxamide]",3.77
5,"CC(C)(C(=O)N1Cc2ccncc2C1)S(=O)(=O)c1cccc(C(F)(F)F)c1 [Compound 148, 2-methyl-1-(1H-pyrrolo[3,4-c]pyridin-2(3H)-yl)-2-((3-(trifluoromethyl)phenyl)sulfonyl)propan-1-one]",10
6,"COc1cc(OC)cc(C(O)CNC(=O)C(C)(C)S(=O)(=O)c2cccc(C(F)(F)F)c2)c1 (centres unmarked) [Compound 142, N-(2-(3,5-dimethoxyphenyl)-2-hydroxyethyl)-2-methyl-2-((3-(trifluoromethyl)phenyl)sulfonyl)propanamide]",0.44
7,"CC(C)(CCNC(=O)CC1CCNCC1)S(=O)(=O)c1cccc(C(F)(F)F)c1 [Compound 206, N-(3-methyl-3-((3-(trifluoromethyl)phenyl)sulfonyl)butyl)-2-(piperidin-4-yl)acetamide]",10
8,"CC(C)(CCNC(=O)[C@@H](N)c1ccccc1)S(=O)(=O)c1cccc(C(F)(F)F)c1 [Compound 205, (S)-2-amino-N-(3-methyl-3-((3-(trifluoromethyl)phenyl)sulfonyl)butyl)-2-phenylacetamide]",1.48
9,"CC(C)(C)Oc1ccc(CNC(=O)C(C)(C)S(=O)(=O)c2cccc(C(F)(F)F)c2)cc1 [Compound 144, N-(4-(tert-butoxy)benzyl)-2-methyl-2-((3-(trifluoromethyl)phenyl)sulfonyl)propanamide]",0.36
10,"Cc1c(C(=O)NCCC(C)(C)S(=O)(=O)c2cccc(C(F)(F)F)c2)ncn(C(C)C)c1=O [Compound 215, 1-isopropyl-5-methyl-N-(3-methyl-3-((3-(trifluoromethyl)phenyl)sulfonyl)butyl)-6-oxo-1,6-dihydropyrimidine-4-carboxamide]",3.16
11,"CN1CCCCC1C(=O)NCCC(C)(C)S(=O)(=O)c1cccc(C(F)(F)F)c1 (centres unmarked) [Compound 221, 1-methyl-N-(3-methyl-3-((3-(trifluoromethyl)phenyl)sulfonyl)butyl)piperidine-2-carboxamide]",6.1
12,"CCOc1ncccc1C(=O)NCC(C)(C)S(=O)(=O)c1cccc(C(F)(F)F)c1 [Compound 162, 2-ethoxy-N-(2-methyl-2-((3-(trifluoromethyl)phenyl)sulfonyl)propyl)nicotinamide]",2.63
13,"CC(C)(CNC(=O)c1ccnc(Cl)c1)S(=O)(=O)c1cccc(C(F)(F)F)c1 [Compound 180, 2-chloro-N-(2-methyl-2-((3-(trifluoromethyl)phenyl)sulfonyl)propyl)isonicotinamide]",3.96
14,"CC(C)(CCNC(=O)CC1(N)CCCCC1)S(=O)(=O)c1cccc(C(F)(F)F)c1 [Compound 223, 2-(1-aminocyclohexyl)-N-(3-methyl-3-((3-(trifluoromethyl)phenyl)sulfonyl)butyl)acetamide]",0.36
15,"Cc1ccc(C(=O)NCC(C)(C)S(=O)(=O)c2cccc(C(F)(F)F)c2)c(C)c1 [Compound 169, 2,4-dimethyl-N-(2-methyl-2-((3-(trifluoromethyl)phenyl)sulfonyl)propyl)benzamide]",1.36
16,"CC(C)(CNC(=O)c1ccnc(C(F)(F)F)c1)S(=O)(=O)c1cccc(C(F)(F)F)c1 [Compound 179, N-(2-methyl-2-((3-(trifluoromethyl)phenyl)sulfonyl)propyl)-2-(trifluoromethyl)isonicotinamide]",1.24
17,"CC(C)(CCNC(=O)c1ccc(C(F)(F)F)nc1S(C)(=O)=O)S(=O)(=O)c1cccc(C(F)(F)F)c1 [Compound 183, N-(3-methyl-3-((3-(trifluoromethyl)phenyl)sulfonyl)butyl)-2-(methylsulfonyl)-6-(trifluoromethyl)nicotinamide]",1.56
